This note sets out measurements from US20250320224A1 (DOMAIN THERAPEUTICS, priority 2022, published 2025).

For this assay, the target named is T1, human PAR-2 (hPAR-2) receptor (Homo sapiens, UniProt P55085).
T1 construct: expressed in HEK-293 cells in an endogenous manner; endogenous in cells; host or cells: HEK-293
T1 sequence (P55085 26-397): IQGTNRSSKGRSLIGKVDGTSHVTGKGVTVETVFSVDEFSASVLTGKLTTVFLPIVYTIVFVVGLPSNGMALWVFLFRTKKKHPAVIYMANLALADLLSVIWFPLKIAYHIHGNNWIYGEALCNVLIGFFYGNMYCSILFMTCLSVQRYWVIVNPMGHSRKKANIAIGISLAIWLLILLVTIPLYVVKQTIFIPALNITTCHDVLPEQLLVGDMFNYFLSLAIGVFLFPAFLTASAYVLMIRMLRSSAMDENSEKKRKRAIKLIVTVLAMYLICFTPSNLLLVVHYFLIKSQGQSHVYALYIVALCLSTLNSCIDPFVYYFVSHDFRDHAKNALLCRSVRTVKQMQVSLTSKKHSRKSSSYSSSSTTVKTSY
As to the kind of experiment: In vitro human PAR-2 functional antagonist activity using calcium assays. Type of assay: cell-based. Particulars: hPAR-2 endogenously expressed in HEK-293 cells; stimulated by 2-Furoyl-LIGRLO-NH2 peptide; Fluo4AM intracellular calcium, FLIPR Tetra. The method, boiled down: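 Antagonism was measured as reduced calcium response to 2-Furoyl-LIGRLO-NH2 (dosed at its 80%-of-maximum concentration), recorded for 5 min. This followed a 10 min compound pre-incubation on Fluo4AM-loaded HEK-293 cells expressing native hPAR-2. Signals were normalised to buffer and agonist-alone controls.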
As for `CC1(C)C(=O)NCCN1C(=O)c1ccc2c(n1)C1(CCCC1)CN2c1cccc(Cl)c1` [Example 9, 4-(1′-(3-chlorophenyl)-1′,2′-dihydrospiro[cyclopentane-1,3′-pyrrolo[3,2-b]pyridine]-5′-carbonyl)-3,3-dimethylpiperazin-2-one], the IC50 (commonly the concentration needed to halve the response being measured) was less than 500 nM.
To `CC1(C)CN(c2ccc(Cl)c(F)c2)c2ccc(C(=O)N3CCN(c4ccc(CC(=O)O)cn4)CC3(C)C)nc2O1` [Example 265, 2-(6-(4-(1-(4-chloro-3-fluorophenyl)-3,3-dimethyl-2,3-dihydro-1H-pyrido[2,3-b][1,4]oxazine-6-carbonyl)-3,3-dimethylpiperazin-1-yl)pyridin-3-yl)acetic acid] belongs more than 10000 nM; to `CC1(C)CN(c2ccc(Cl)c(F)c2)c2ccc(C(=O)N3CCC(C(=O)O)CC3)nc21` [Example 33, 1-(1-(4-chloro-3-fluorophenyl)-3,3-dimethyl-2,3-dihydro-1H-pyrrolo[3,2-b]pyridine-5-carbonyl)piperidine-4-carboxylic acid], 500 to 10000 nM.
For `CC1(C)CN(C2CCC(F)(F)CC2)c2ccc(C(=O)N3CCN(c4ccc(CC(=O)O)cn4)CC3(C)C)nc21` [Example 164, 2-(6-(4-(1-(4,4-difluorocyclohexyl)-3,3-dimethyl-2,3-dihydro-1H-pyrrolo[3,2-b]pyridine-5-carbonyl)-3,3-dimethylpiperazin-1-yl)pyridin-3-yl)acetic acid], the IC50 is less than 500 nM.
The same measure for `CC1(C)CN(c2ccc(CC(=O)O)cn2)CCN1C(=O)c1cc2n(n1)C(C)(C)CCN2c1ccc(Cl)c(F)c1` [Example 179, 2-(6-(4-(4-(4-chloro-3-fluorophenyl)-7,7-dimethyl-4,5,6,7-tetrahydropyrazolo[1,5-a]pyrimidine-2-carbonyl)-3,3-dimethylpiperazin-1-yl)pyridin-3-yl)acetic acid]: more than 10000 nM.
The same measure for `CCC1(CC)CN(c2ccc(Cl)c(F)c2)c2ccc(C(=O)N3CCN(c4cc(C)c(C(=O)O)c(C)n4)CC3(C)C)nc21` [Example 103, 6-(4-(1-(4-chloro-3-fluorophenyl)-3,3-diethyl-2,3-dihydro-1H-pyrrolo[3,2-b]pyridine-5-carbonyl)-3,3-dimethylpiperazin-1-yl)-2,4-dimethylnicotinic acid]: less than 500 nM; for `Cc1cc(N2CCN(C(=O)c3ccc(N4CC(C)(C)c5nc(C(=O)N6CCN(c7cc(C)c(C(=O)O)c(C)n7)CC6(C)C)ccc54)nc3)C(C)(C)C2)nc(C)c1C(=O)O` [Example 133, 6-(4-(6-(5-(4-(5-carboxy-4,6-dimethylpyridin-2-yl)-2,2-dimethylpiperazine-1-carbonyl)-3,3-dimethyl-2,3-dihydro-1H-pyrrolo[3,2-b]pyridin-1-yl)nicotinoyl)-3,3-dimethylpiperazin-1-yl)-2,4-dimethylnicotinic acid]: more than 10000 nM; for `COCC1CC2(C1)CN(c1ccc(Cl)c(F)c1)c1ccc(C(=O)N3CCN(c4ccc(CC(=O)O)cn4)CC3(C)C)nc12` (centres unmarked) [Example 239, 2-(6-(4-(1′-(4-chloro-3-fluorophenyl)-3-(methoxymethyl)-1′,2′-dihydrospiro[cyclobutane-1,3′-pyrrolo[3,2-b]pyridine]-5′-carbonyl)-3,3-dimethylpiperazin-1-yl)pyridin-3-yl)acetic acid]: less than 500 nM.
To `CC1(C)CN(c2ccc(CC(=O)O)cn2)CCN1C(=O)c1cnc2c(n1)C1(CCC1)CN2c1ccc(Cl)c(F)c1` [Example 231, 2-(6-(4-(5′-(4-chloro-3-fluorophenyl)-5′,6′-dihydrospiro[cyclobutane-1,7′-pyrrolo[2,3-b]pyrazine]-2′-carbonyl)-3,3-dimethylpiperazin-1-yl)pyridin-3-yl)acetic acid] belongs less than 500 nM.
Turning to `COC(=O)c1c(C)cc(N2CCN(C(=O)c3ccc4c(n3)C(C)(C)CN4c3ccccn3)C(C)(C)C2)nc1C` [Example 135, methyl 6-(4-(3,3-dimethyl-1-(pyridin-2-yl)-2,3-dihydro-1H-pyrrolo[3,2-b]pyridine-5-carbonyl)-3,3-dimethylpiperazin-1-yl)-2,4-dimethylnicotinate], the IC50 fell in the range of 500 to 10000 nM.
With `Cc1cc(N2CCN(C(=O)c3ccc4c(n3)C3(CC(C)C3)CN4c3ccc(Cl)c(F)c3)C(C)(C)C2)nc(C)c1C(=O)O` (single isomer, unassigned) [Example 156, 6-(4-(1′-(4-chloro-3-fluorophenyl)-3-methyl-1′,2′-dihydrospiro[cyclobutane-1,3′-pyrrolo[3,2-b]pyridine]-5′-carbonyl)-3,3-dimethylpiperazin-1-yl)-2,4-dimethylnicotinic acid], the half-inhibitory concentration (IC50) was less than 500 nM.
To `Cc1ccc(N2CC(C)(C)c3nc(C(=O)N4CCN(c5cc(C)c(C(=O)O)c(C)n5)CC4(C)C)cnc32)cc1Cl` [Example 189, 6-(4-(5-(3-chloro-4-methylphenyl)-7,7-dimethyl-6,7-dihydro-5H-pyrrolo[2,3-b]pyrazine-2-carbonyl)-3,3-dimethylpiperazin-1-yl)-2,4-dimethylnicotinic acid] belongs less than 500 nM; to `CC(C)CN1CC(C)(Cc2ccc(Cl)c(F)c2)c2ccc(C(=O)N3CCN(c4ccc(CC(=O)O)cn4)CC3(C)C)nc21` (centres unmarked) [Example 197, 2-(6-(4-(3-(4-chloro-3-fluorobenzyl)-1-isobutyl-3-methyl-2,3-dihydro-1H-pyrrolo[2,3-b]pyridine-6-carbonyl)-3,3-dimethylpiperazin-1-yl)pyridin-3-yl)acetic acid], more than 10000 nM; to `CC1(C)CN(c2ccc(Cl)c(F)c2)c2ccc(C(=O)N3CCN(c4nc(C(=O)O)cs4)CC3(C)C)nc21` [Example 43, 2-(4-(1-(4-chloro-3-fluorophenyl)-3,3-dimethyl-2,3-dihydro-1H-pyrrolo[3,2-b]pyridine-5-carbonyl)-3,3-dimethylpiperazin-1-yl)thiazole-4-carboxylic acid], less than 500 nM.
To `CC1(C)CN(c2ccc(Cl)c(F)c2)c2ccc(C(=O)N3CCCC(Nc4ccc(C(=O)O)cn4)C3)nc21` (centres unmarked) [Example 109, 6-((1-(1-(4-chloro-3-fluorophenyl)-3,3-dimethyl-2,3-dihydro-1H-pyrrolo[3,2-b]pyridine-5-carbonyl)piperidin-3-yl)amino)nicotinic acid] belongs more than 10000 nM.
The same measure for `Cc1cc(N2CCN(C(=O)c3ccc4c(n3)C(C)(C)CN4c3ccc(C(F)(F)F)c(F)c3)C(C)(C)C2)nc(C)c1C(=O)O` [Example 275, 6-(4-(1-(3-fluoro-4-(trifluoromethyl)phenyl)-3,3-dimethyl-2,3-dihydro-1H-pyrrolo[3,2-b]pyridine-5-carbonyl)-3,3-dimethylpiperazin-1-yl)-2,4-dimethylnicotinic acid]: less than 500 nM.
Turning to `Cc1cc(N2CCN(C(=O)c3cnc4c(n3)C(C)(C)CN4CCc3ccc(F)cc3)C(C)(C)C2)nc(C)c1C(=O)O` [Example 213], the IC50 lay in the range of 500 to 10000 nM.
To `CC1(C)C(=O)NCCN1C(=O)c1ccc2c(n1)C1(CCC1)CN2c1ccc(Cl)c(F)c1` [Example 126, 4-(1′-(4-chloro-3-fluorophenyl)-1′,2′-dihydrospiro[cyclobutane-1,3′-pyrrolo[3,2-b]pyridine]-5′-carbonyl)-3,3-dimethylpiperazin-2-one] belongs less than 500 nM; to `CC1(C)CN(c2ccc(Cl)c(F)c2)c2ccc(C(=O)N3CCN(c4ccc(CC(=O)O)cn4)CC3(C)C)nc21` [Example 65, 2-(6-(4-(1-(4-chloro-3-fluorophenyl)-3,3-dimethyl-2,3-dihydro-1H-pyrrolo[3,2-b]pyridine-5-carbonyl)-3,3-dimethylpiperazin-1-yl)pyridin-3-yl)acetic acid], less than 500 nM.
The same measure for `CC1(C)CN(c2ccc(Cl)c(F)c2)c2ccc(C(=O)N3CCN(c4nc(C(=O)N5CCC(O)CC5)cs4)CC3(C)C)nc21` [Example 81, (1-(4-chloro-3-fluorophenyl)-3,3-dimethyl-2,3-dihydro-1H-pyrrolo[3,2-b]pyridin-5-yl)(4-(4-(4-hydroxypiperidine-1-carbonyl)thiazol-2-yl)-2,2-dimethylpiperazin-1-yl)methanone]: less than 500 nM; for `CC1(C)CN(C2CCC(C#N)CC2)c2ccc(C(=O)N3CCN(c4ccc(CC(=O)O)cn4)CC3(C)C)nc21` (centres unmarked) [Example 169, 2-(6-(4-(1-(4-cyanocyclohexyl)-3,3-dimethyl-2,3-dihydro-1H-pyrrolo[3,2-b]pyridine-5-carbonyl)-3,3-dimethylpiperazin-1-yl)pyridin-3-yl)acetic acid]: 500 to 10000 nM; for `COCC1CC2(C1)CN(c1ccc(Cl)c(F)c1)c1ccc(C(=O)N3CCN(c4cc(C)c(C(=O)O)c(C)n4)CC3(C)C)nc12` (centres unmarked) [Example 225, 6-(4-(1′-(4-chloro-3-fluorophenyl)-3-(methoxymethyl)-1′,2′-dihydrospiro[cyclobutane-1,3′-pyrrolo[3,2-b]pyridine]-5′-carbonyl)-3,3-dimethylpiperazin-1-yl)-2,4-dimethylnicotinic acid]: less than 500 nM.
To `COC1c2nc(C(=O)N3CCN(c4ccc(CC(=O)O)cn4)CC3(C)C)ccc2N(c2ccc(Cl)c(F)c2)CC1(C)C` (centres unmarked) [Example 253, 2-(6-(4-(5-(4-chloro-3-fluorophenyl)-8-methoxy-7,7-dimethyl-5,6,7,8-tetrahydro-1,5-naphthyridine-2-carbonyl)-3,3-dimethylpiperazin-1-yl)pyridin-3-yl)acetic acid] belongs 500 to 10000 nM.
